Holding throughout (assay): growth of human tumour cells (NCI), 48 h
Assay [1] deals with 786-0 renal.
Assay [2] relates to COLO 205 colon.
Assay [3] has as its system DU-145 prostate.
For assay [4], the system named is HCC-2998 colon.
Assay [5] concerns HCT-116 colon.
Assay [6] concerns HOP-62 NSCLC.
Assay [7] deals with K-562 leukemia.
In assay [8] the test system is M14 melanoma.
The test system of assay [9] is MCF7 breast.
Assay [10] deals with MDA-MB-231 breast.
Assay [11] has as its system MDA-MB-435.
The subject of assay [12] is NCI-H460 lung.
Assay [13] relates to OVCAR-5 ovarian.
The subject of assay [14] is PC-3 prostate.
Assay [15] deals with RPMI-8226 leukemia.
The test system of assay [16] is RXF 393 renal.
Assay [17] has as its system SN12C renal.
For assay [18], the system named is SNB-19 CNS.
The subject of assay [19] is U251 CNS.

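Interpolation was linear, between the two tested concentrations surrounding the appropriate level; five concentrations were tested over 48 hours in 96-well plates. The concentration for full growth arrest is given as TGI.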

As to `O=C1C(Cl)=CC2(C=C1Cl)CCN=c1c(O)c3c(c(O)c12)=NC=N3`, the TGI is more than 100 µM in assay [1]; 46.7 µM in assay [2]; more than 100 µM in assay [3]; more than 100 µM in assay [4]; 67.5 µM in [5]; more than 100 µM in [6]. For the same molecule, the TGI in [7] was more than 100 µM; in assay [8], more than 100 µM; in assay [9], 48.9 µM; in [10], more than 100 µM; in assay [11], 32.7 µM; in [12] it was more than 100 µM. The TGI in assay [13] was more than 100 µM; in [14] it was more than 100 µM; in [15], 80.9 µM; in assay [16] it was 70.7 µM; in [17] it was more than 100 µM; in [18] it was more than 100 µM. The same molecule displayed a TGI in assay [19] of 71.9 µM.

Take `COC(=O)c1sc(=S)sc1SCc1cccc(CSc2sc(=S)sc2C(=O)OC)c1`: the TGI in [1] was more than 100 µM; in [2] it was more than 100 µM; in [3] it was more than 100 µM; in assay [4] it was more than 100 µM; in assay [5], more than 100 µM; in assay [6], 67.1 µM. Further, the TGI in assay [7], in [8], in assay [9], in assay [10], in assay [11] and in [12] was more than 100 µM each time. Further, the TGI in [13] is more than 100 µM; in [14], more than 100 µM; in assay [15], more than 100 µM; in assay [16] it was 34.3 µM; in [17] it was more than 100 µM; in [18] it was 86.3 µM. The TGI in assay [19] was more than 100 µM.

Consider `Cc1cn([C@H]2C[C@@H](N3C(=O)c4ccccc4C3=O)[C@@H](CO[Si](C)(C)C(C)(C)C)O2)c(=O)[nH]c1=O`, for which the TGI was 81.5 µM in [1]; more than 100 µM in assay [2]; more than 100 µM in assay [3]; more than 100 µM in [4]; more than 100 µM in assay [5]; 61.4 µM in assay [6]. Further, the TGI in assay [7], in assay [8], in assay [9], in assay [10], in assay [11] and in assay [12] was more than 100 µM in each case. Further, the TGI in assay [13] is more than 100 µM; in assay [14], more than 100 µM; in assay [15] it was more than 100 µM; in [16], 52 µM; in assay [17], more than 100 µM; in assay [18], more than 100 µM. In addition, the TGI in [19] is more than 100 µM.

Regarding `CS(=O)(=O)CCC1CCC(=O)O1` (stereo not drawn), the TGI in [1], in assay [3], in assay [4], in assay [5], in assay [6] and in assay [7] was more than 100 µM each time. Moreover, the TGI in [8], in [9], in assay [10], in assay [11], in assay [12] and in [13] was more than 100 µM throughout. For the same molecule, the TGI in assay [14], in [15], in [16], in [17], in [18] and in [19] was more than 100 µM throughout.

With `N/C(CCSCCSCC/C(N)=N\O)=N\O`, the TGI in [1], in assay [2], in [3], in assay [4], in assay [5] and in assay [6] was more than 100 µM each time. The TGI in assay [7], in assay [8], in assay [9], in assay [10], in assay [11] and in assay [12] was more than 100 µM in each case. Besides, the TGI in assay [13], in [14], in assay [15], in assay [16], in [17] and in assay [18] was more than 100 µM throughout. In addition, the TGI in assay [19] was more than 100 µM.

`O=C(/C=C/c1ccccc1)CCN1CCCCC1`: the TGI in assay [1] was 44.4 µM; in assay [2] it was 38.4 µM; in assay [3], more than 100 µM; in [4] it was more than 100 µM; in assay [5], 32.1 µM; in [6], more than 100 µM. In addition, the TGI in [7] was more than 100 µM; in assay [8], 32.4 µM; in assay [9] it was 89.9 µM; in assay [10] it was 63.9 µM; in assay [11], 84.4 µM; in assay [12] it was more than 100 µM. In addition, the TGI in assay [13] was more than 100 µM; in [14] it was more than 100 µM; in [15], 66.1 µM; in assay [16] it was 75 µM; in assay [17], 48.8 µM; in assay [18], more than 100 µM. For the same molecule, the TGI in assay [19] amounted to 65.6 µM.

Turning to `N#CC1=C(S)N(C2OC(CO)C(O)C(O)C2O)C(c2ccccc2)=CC1c1ccco1` (stereo not drawn), the TGI in assay [1], in assay [3], in [4], in [5], in assay [6] and in [7] was more than 100 µM in each case. The TGI in [8], in assay [9], in assay [10], in assay [11], in [12] and in assay [13] was more than 100 µM each time. Further, the TGI was more than 100 µM in assay [14]; more than 100 µM in assay [15]; more than 100 µM in assay [16]; more than 100 µM in assay [17]; more than 100 µM in assay [18]; 53.5 µM in [19].

For `O=C1/C(=C/c2ccc(Br)s2)NC(=S)N1CN1CCCCC1`, the TGI is more than 100 µM in assay [1]; 37.2 µM in [2]; more than 100 µM in [3]; more than 100 µM in assay [4]; more than 100 µM in [5]; more than 100 µM in assay [6]. Further, the TGI was 59.8 µM in assay [7]; 57.8 µM in assay [9]; more than 100 µM in assay [10]; more than 100 µM in assay [11]; more than 100 µM in [12]; more than 100 µM in [13]. In addition, the TGI in assay [14] was 88.3 µM; in [15], 50.8 µM; in assay [16], 60.7 µM; in assay [17], more than 100 µM; in [18], more than 100 µM; in assay [19], more than 100 µM.

On to `C#CCN(C(=O)C(F)(F)F)C(/C=C\C(=O)OC)(C(=O)OCC)C(=O)OCC`, for which the TGI in assay [1], in [3], in assay [4], in [6], in assay [7] and in assay [8] was more than 100 µM in each case. Also, the TGI in assay [9], in assay [10], in [11], in [12], in [13] and in assay [14] was more than 100 µM throughout. In addition, the TGI in [15], in [16], in assay [17], in assay [18] and in [19] was more than 100 µM throughout.

Take `CCCCCCC1OC23OC1CCC2C(O)CCC3O` (stereo not drawn): the TGI in assay [1], in assay [2], in assay [3], in assay [4], in assay [5] and in assay [6] was more than 100 µM throughout. For the same molecule, the TGI in assay [7], in assay [9], in assay [10], in assay [11], in assay [12] and in assay [13] was more than 100 µM throughout. Further, the TGI in [14], in assay [15], in assay [16], in assay [17], in [18] and in assay [19] was more than 100 µM throughout.

As to `O=C1CSC(c2cc3cc(Br)ccc3nc2Cl)N1c1ccc(Cl)cc1` (stereo not drawn), the TGI in assay [1] is more than 100 µM; in assay [2], 41.2 µM; in assay [3], more than 100 µM; in assay [4], 41.7 µM; in [5], 77 µM; in assay [6] it was more than 100 µM. In addition, the TGI was more than 100 µM in [7]; 84.9 µM in assay [8]; 67.6 µM in assay [9]; more than 100 µM in assay [10]; 49.5 µM in assay [11]; 42.1 µM in assay [12]. The TGI in assay [13] is more than 100 µM; in [14], more than 100 µM; in assay [15], more than 100 µM; in assay [16], 60.9 µM; in assay [17], 48.7 µM; in assay [18] it was more than 100 µM.

As to `N#CCC(=O)N/N=C\C(O)C(O)C(O)C(O)CO` (stereo not drawn), the TGI in assay [1], in assay [3], in assay [4], in [6], in [7] and in [8] was more than 100 µM each time. Moreover, the TGI in assay [9], in [10], in [11], in assay [12], in assay [13] and in [14] was more than 100 µM each time. The TGI in assay [15], in assay [16], in assay [17] and in assay [18] was more than 100 µM each time.

The values above are taken from PubChem BioAssay (NCI).
